Source: patent US20260295053A1, “COMPOUNDS FOR DEGRADATION AND INHIBITION OF KRAS (G12D) PROTEIN” (Shenzhen Ionova Life Science Co., Ltd., priority 2023, published 2026)

Experiments:
KRAS (G12D) = biological target: T1, KRAS (G12D) (Homo sapiens, UniProt P01116, G12D); test: KRAS (G12D) cellular degradation assay in AsPC-1 cells; format: cell-based; conditions: 24 hours, antibody fluorescence (Odyssey CLX), DC50 half-maximal degradation concentration
T1 construct: in-cell western with KRAS G12D antibody after 24 h
How it was run: (§1)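 Half-maximal degradation (DC50) and inhibition (IC50) concentrations are fitted from dose-response curves spanning […] to 1.5 nM final. KRAS G12D loss is measured by fluorescent antibody staining with β-actin reference after 24 h; growth is measured by ATP luminescence after a 6-day exposure.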

AsPC-1 cells = test: AsPC-1 cell proliferation assay (CellTiter Glo); format: cell-based; conditions: Homo sapiens, ASPC1, 144 h, 6 days
How it was run: as §1

T1 sequence (P01116 1-188 isoform P01116-2 G12D): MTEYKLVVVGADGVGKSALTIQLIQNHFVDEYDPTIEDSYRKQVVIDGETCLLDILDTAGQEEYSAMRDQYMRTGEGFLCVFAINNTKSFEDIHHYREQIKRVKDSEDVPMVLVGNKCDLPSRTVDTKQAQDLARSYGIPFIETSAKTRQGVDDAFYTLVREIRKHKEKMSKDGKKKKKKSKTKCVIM

Row | DC50 (KRAS (G12D)) [nM] | IC50 (AsPC-1 cells) [nM] | Compound
1 | < 10 | < 10 | CCn1nccc1-c1ccc([C@@H](NC(=O)[C@@H]2C[C@@H](O)CN2C(=O)[C@H](C(C)C)n2cc(-c3ccc(COc4c(-c5c(C)c(F)cc6n[nH]cc56)c(C5CC5)cc5c(N6C[C@@H]7C[C@H]6CN7)nc(OC6CCOCC6)nc45)cc3)nn2)[C@H](C)O)c2c1CC2 [Example 84, (2S,4R)-1-((2S)-2-(4-(4-(((4-((1S,4S)-2,5-diazabicyclo[2.2.1]heptan-2-yl)-6-cyclopropyl-7-(6-fluoro-5-methyl-1H-indazol-4-yl)-2-((tetrahydro-2H-pyran-4-yl)oxy)quinazolin-8-yl)oxy)methyl)phenyl)-1H-1,2,3-triazol-1-yl)-3-methylbutanoyl)-N-((1R,2S)-1-(5-(1-ethyl-1H-pyrazol-5-yl)bicyclo[4.2.0]octa-1(6),2,4-trien-2-yl)-2-hydroxypropyl)-4-hydroxypyrrolidine-2-carboxamide]
2 | < 10 | < 10 | CCn1nccc1-c1ccc([C@@H](NC(=O)[C@@H]2C[C@@H](O)CN2C(=O)[C@H](C(C)C)n2cc(-c3ccc(COc4c(-c5c(C)c(F)cc6[nH]ncc56)c(C5CC5)cc5c(N6C[C@@H]7C[C@H]6CN7)nc(OCC(OC)C(F)F)nc45)cc3)nn2)[C@H](C)O)cc1 (stereo partly drawn) [Example 119, (2S,4R)-1-((2S)-2-(4-(4-(((4-((1S,4S)-2,5-diazabicyclo[2.2.1]heptan-2-yl)-6-cyclopropyl-2-(3,3-difluoro-2-methoxypropoxy)-7-(6-fluoro-5-methyl-1H-indazol-4-yl)quinazolin-8-yl)oxy)methyl)phenyl)-1H-1,2,3-triazol-1-yl)-3-methylbutanoyl)-N-((1R,2S)-1-(4-(1-ethyl-1H-pyrazol-5-yl)phenyl)-2-hydroxypropyl)-4-hydroxypyrrolidine-2-carboxamide]
3 | 10 to 100 | < 10 | CCn1nccc1-c1ccc([C@H](CO)NC(=O)[C@@H]2C[C@@H](O)CN2C(=O)[C@H](C(C)C)n2cc(-c3ccc(COc4c(-c5c(C)c(F)cc6[nH]ncc56)c(C5CC5)cc5c(N6C[C@@H]7C[C@H]6CN7)nc(OC[C@H](C)OC)nc45)c4c3CC4)nn2)cc1 [Example 31, (2S,4R)-1-((2S)-2-(4-(5-(((4-((1S,4S)-2,5-diazabicyclo[2.2.1]heptan-2-yl)-6-cyclopropyl-7-(6-fluoro-5-methyl-1H-indazol-4-yl)-2-((S)-2-methoxypropoxy)quinazolin-8-yl)oxy)methyl)bicyclo[4.2.0]octa-1,3,5-trien-2-yl)-1H-1,2,3-triazol-1-yl)-3-methylbutanoyl)-N—((R)-1-(4-(1-ethyl-1H-pyrazol-5-yl)phenyl)-2-hydroxyethyl)-4-hydroxypyrrolidine-2-carboxamide]
